ChEMBL document CHEMBL3352227, “Synthesis, antimycobacterial and antibacterial evaluation of l-[(1R, 2S)-2-fluorocyclopropyl]fluoroquinolone derivatives containing an oxime functional moiety” (Eur J Med Chem, 2014)
≈ marks a conversion by molar mass, not a printed value.

What was measured:
Format in all cases: functional
[1] = system: Staphylococcus epidermidis; experiment: Antibacterial activity against methicillin-sensitive Staphylococcus epidermidis 12-8 after 18 to 24 hrs by standard twofold serial dilution method
[2] = system: Staphylococcus epidermidis; experiment: Antibacterial activity against methicillin-sensitive Staphylococcus epidermidis 12-3 after 18 to 24 hrs by standard twofold serial dilution method
[3] = system: Staphylococcus epidermidis; experiment: Antibacterial activity against methicillin-resistant Staphylococcus epidermidis 12-1 after 18 to 24 hrs by standard twofold serial dilution method
Klebsiella pneumoniae [4] = experiment: Antibacterial activity against extended-spectrum beta-lactamase producin Klebsiella pneumoniae 12-3 after 18 to 24 hrs by standard twofold serial dilution method
[5] = system: Staphylococcus epidermidis; experiment: Antibacterial activity against methicillin-sensitive Staphylococcus epidermidis 12-6 after 18 to 24 hrs by standard twofold serial dilution method
Klebsiella pneumoniae [6] = experiment: Antibacterial activity against extended-spectrum beta-lactamase producin Klebsiella pneumoniae 12-4 after 18 to 24 hrs by standard twofold serial dilution method
Escherichia coli [7] = experiment: Antibacterial activity against extended-spectrum beta-lactamase producing Escherichia coli 12-3 after 18 to 24 hrs by standard twofold serial dilution method
Escherichia coli [8] = experiment: Antibacterial activity against Escherichia coli ATCC 25922 after 18 to 24 hrs by standard twofold serial dilution method
Klebsiella pneumoniae [9] = experiment: Antibacterial activity against Klebsiella pneumoniae 12-1 after 18 to 24 hrs by standard twofold serial dilution method
Staphylococcus aureus [10] = experiment: Antibacterial activity against Staphylococcus aureus ATCC 25923 after 18 to 24 hrs by standard twofold serial dilution method
Staphylococcus aureus [11] = experiment: Antibacterial activity against methicillin-sensitive Staphylococcus aureus 12-5 after 18 to 24 hrs by standard twofold serial dilution method
Streptococcus pneumoniae [12] = experiment: Antibacterial activity against Streptococcus pneumoniae ATCC 49619 after 18 to 24 hrs by standard twofold serial dilution method
[13] = system: Staphylococcus epidermidis; experiment: Antibacterial activity against methicillin-sensitive Staphylococcus epidermidis 12-1 after 18 to 24 hrs by standard twofold serial dilution method
Escherichia coli [14] = experiment: Antibacterial activity against extended-spectrum beta-lactamase producing Escherichia coli 12-15 after 18 to 24 hrs by standard twofold serial dilution method
Klebsiella pneumoniae [15] = experiment: Antibacterial activity against Klebsiella pneumoniae 12-4 after 18 to 24 hrs by standard twofold serial dilution method
Streptococcus pneumoniae [16] = experiment: Antibacterial activity against Streptococcus pneumoniae 12-18 after 18 to 24 hrs by standard twofold serial dilution method
Escherichia coli [17] = experiment: Antibacterial activity against extended-spectrum beta-lactamase producing Escherichia coli 12-14 after 18 to 24 hrs by standard twofold serial dilution method
Pseudomonas aeruginosa [18] = experiment: Antibacterial activity against Pseudomonas aeruginosa 12-12 after 18 to 24 hrs by standard twofold serial dilution method
Pseudomonas aeruginosa [19] = experiment: Antibacterial activity against Pseudomonas aeruginosa 12-14 after 18 to 24 hrs by standard twofold serial dilution method
Klebsiella pneumoniae [20] = experiment: Antibacterial activity against Klebsiella pneumoniae 12-2 after 18 to 24 hrs by standard twofold serial dilution method
Escherichia coli [21] = experiment: Antibacterial activity against extended-spectrum beta-lactamase producing Escherichia coli 12-2 after 18 to 24 hrs by standard twofold serial dilution method
Staphylococcus aureus [22] = experiment: Antibacterial activity against methicillin-resistant Staphylococcus aureus 12-5 after 18 to 24 hrs by standard twofold serial dilution method
Staphylococcus aureus [23] = experiment: Antibacterial activity against methicillin-sensitive Staphylococcus aureus 12-4 after 18 to 24 hrs by standard twofold serial dilution method
Staphylococcus aureus [24] = experiment: Antibacterial activity against methicillin-resistant Staphylococcus aureus 12-2 after 18 to 24 hrs by standard twofold serial dilution method
[25] = system: Staphylococcus epidermidis; experiment: Antibacterial activity against methicillin-resistant Staphylococcus epidermidis 12-6 after 18 to 24 hrs by standard twofold serial dilution method
Escherichia coli [26] = experiment: Antibacterial activity against Escherichia coli 12-1 after 18 to 24 hrs by standard twofold serial dilution method
Klebsiella pneumoniae [27] = experiment: Antibacterial activity against extended-spectrum beta-lactamase producin Klebsiella pneumoniae 12-14 after 18 to 24 hrs by standard twofold serial dilution method
Klebsiella pneumoniae [28] = experiment: Antibacterial activity against extended-spectrum beta-lactamase producin Klebsiella pneumoniae 12-7 after 18 to 24 hrs by standard twofold serial dilution method
Staphylococcus aureus [29] = experiment: Antibacterial activity against methicillin-sensitive Staphylococcus aureus 12-2 after 18 to 24 hrs by standard twofold serial dilution method
[30] = system: Mycobacterium tuberculosis; experiment: Antimycobacterial activity against Mycobacterium tuberculosis H37Rv ATCC 27294 by MABA method
Staphylococcus aureus [31] = experiment: Antibacterial activity against methicillin-resistant Staphylococcus aureus 12-4 after 18 to 24 hrs by standard twofold serial dilution method
Staphylococcus aureus [32] = experiment: Antibacterial activity against methicillin-sensitive Staphylococcus aureus 12-1 after 18 to 24 hrs by standard twofold serial dilution method

| SMILES | MIC [1] [µg/mL] | MIC [2] [µg/mL] | MIC [3] [µg/mL] | MIC (Klebsiella pneumoniae [4]) [µg/mL] | MIC [5] [µg/mL] | MIC (Klebsiella pneumoniae [6]) [µg/mL] | MIC (Escherichia coli [7]) [µg/mL] | MIC (Escherichia coli [8]) [µg/mL] | MIC (Klebsiella pneumoniae [9]) [µg/mL] | MIC (Staphylococcus aureus [10]) [µg/mL] | MIC (Staphylococcus aureus [11]) [µg/mL] | MIC (Streptococcus pneumoniae [12]) [µg/mL] | MIC [13] [µg/mL] | MIC (Escherichia coli [14]) [µg/mL] | MIC (Klebsiella pneumoniae [15]) [µg/mL] | MIC (Streptococcus pneumoniae [16]) [µg/mL] | MIC (Escherichia coli [17]) [µg/mL] | MIC (Pseudomonas aeruginosa [18]) [µg/mL] | MIC (Pseudomonas aeruginosa [19]) [µg/mL] | MIC (Klebsiella pneumoniae [20]) [µg/mL] | other results |
| --- | --- | --- | --- | --- | --- | --- | --- | --- | --- | --- | --- | --- | --- | --- | --- | --- | --- | --- | --- | --- | --- |
| CCO/N=C1/CN(c2cc3c(cc2F)c(=O)c(C(=O)O)cn3[C@@H]2C[C@@H]2F)[C@H]1CN | 2 (≈ 4.92 µM) | 0.5 (≈ 1.23 µM) | 4 (≈ 9.84 µM) | 32 (≈ 78.7 µM) | 0.125 (≈ 0.308 µM) | 8 (≈ 19.7 µM) | 8 (≈ 19.7 µM) | 0.03 (≈ 0.0738 µM) | 0.06 (≈ 0.148 µM) | 0.03 (≈ 0.0738 µM) | 0.125 (≈ 0.308 µM) | 0.06 (≈ 0.148 µM) | 0.125 (≈ 0.308 µM) | 128 (≈ 315 µM) | 0.06 (≈ 0.148 µM) | 1 (≈ 2.46 µM) | 16 (≈ 39.4 µM) | 0.5 (≈ 1.23 µM) | 32 (≈ 78.7 µM) | 0.06 (≈ 0.148 µM) | MIC (Escherichia coli [21]): 32 µg/mL (≈ 78.7 µM); MIC (Staphylococcus aureus [22]): 16 µg/mL (≈ 39.4 µM); MIC (Staphylococcus aureus [23]): 0.06 µg/mL (≈ 0.148 µM); MIC (Staphylococcus aureus [24]): 16 µg/mL (≈ 39.4 µM); MIC [25]: 8 µg/mL (≈ 19.7 µM); MIC (Escherichia coli [26]): 0.125 µg/mL (≈ 0.308 µM); MIC (Klebsiella pneumoniae [27]): 32 µg/mL (≈ 78.7 µM); MIC (Klebsiella pneumoniae [28]): 0.5 µg/mL (≈ 1.23 µM); MIC (Staphylococcus aureus [29]): 0.06 µg/mL (≈ 0.148 µM); MIC [30]: 2 µg/mL (≈ 4.92 µM); MIC (Staphylococcus aureus [31]): 32 µg/mL (≈ 78.7 µM); MIC (Staphylococcus aureus [32]): 0.125 µg/mL (≈ 0.308 µM) |
| NC[C@H]1/C(=N\OCc2ccccc2)CN1c1cc2c(cc1F)c(=O)c(C(=O)O)cn2[C@@H]1C[C@@H]1F | 2 (≈ 4.27 µM) | 0.25 (≈ 0.534 µM) | 4 (≈ 8.54 µM) | 32 (≈ 68.3 µM) | 0.125 (≈ 0.267 µM) | 8 (≈ 17.1 µM) | 16 (≈ 34.2 µM) | 0.125 (≈ 0.267 µM) | 0.125 (≈ 0.267 µM) | 0.015 (≈ 0.032 µM) | 0.125 (≈ 0.267 µM) | 0.25 (≈ 0.534 µM) | 0.125 (≈ 0.267 µM) | > 128 | 0.25 (≈ 0.534 µM) | 1 (≈ 2.13 µM) | 64 (≈ 137 µM) | 2 (≈ 4.27 µM) | 6 (≈ 12.8 µM) | 0.06 (≈ 0.128 µM) | MIC (Escherichia coli [21]): 128 µg/mL (≈ 273 µM); MIC (Staphylococcus aureus [22]): 8 µg/mL (≈ 17.1 µM); MIC (Staphylococcus aureus [23]): 0.03 µg/mL (≈ 0.064 µM); MIC (Staphylococcus aureus [24]): 16 µg/mL (≈ 34.2 µM); MIC [25]: 16 µg/mL (≈ 34.2 µM); MIC (Escherichia coli [26]): 2 µg/mL (≈ 4.27 µM); MIC (Klebsiella pneumoniae [27]): 64 µg/mL (≈ 137 µM); MIC (Klebsiella pneumoniae [28]): 1 µg/mL (≈ 2.13 µM); MIC (Staphylococcus aureus [29]): 0.03 µg/mL (≈ 0.064 µM); MIC [30]: 0.5 µg/mL (≈ 1.07 µM); MIC (Staphylococcus aureus [31]): 16 µg/mL (≈ 34.2 µM); MIC (Staphylococcus aureus [32]): 0.125 µg/mL (≈ 0.267 µM) |
| CO/N=C1/CN(c2cc3c(cc2F)c(=O)c(C(=O)O)cn3[C@@H]2C[C@@H]2F)[C@@H]1CN | 8 (≈ 20.4 µM) | 1 (≈ 2.55 µM) | 16 (≈ 40.8 µM) | 128 (≈ 326 µM) | 0.5 (≈ 1.27 µM) | 16 (≈ 40.8 µM) | 128 (≈ 326 µM) | 0.06 (≈ 0.153 µM) | 1 (≈ 2.55 µM) | 0.5 (≈ 1.27 µM) | 0.5 (≈ 1.27 µM) | 0.5 (≈ 1.27 µM) | 0.5 (≈ 1.27 µM) | > 128 | 0.25 (≈ 0.637 µM) | 2 (≈ 5.1 µM) | 128 (≈ 326 µM) | 1 (≈ 2.55 µM) | 64 (≈ 163 µM) | 0.5 (≈ 1.27 µM) | MIC (Escherichia coli [21]): > 128 µg/mL; MIC (Staphylococcus aureus [22]): 64 µg/mL (≈ 163 µM); MIC (Staphylococcus aureus [23]): 0.25 µg/mL (≈ 0.637 µM); MIC (Staphylococcus aureus [24]): 64 µg/mL (≈ 163 µM); MIC [25]: 16 µg/mL (≈ 40.8 µM); MIC (Escherichia coli [26]): 0.5 µg/mL (≈ 1.27 µM); MIC (Klebsiella pneumoniae [27]): 128 µg/mL (≈ 326 µM); MIC (Klebsiella pneumoniae [28]): 4 µg/mL (≈ 10.2 µM); MIC (Staphylococcus aureus [29]): 0.5 µg/mL (≈ 1.27 µM); MIC [30]: 1 µg/mL (≈ 2.55 µM); MIC (Staphylococcus aureus [31]): 128 µg/mL (≈ 326 µM); MIC (Staphylococcus aureus [32]): 0.5 µg/mL (≈ 1.27 µM) |
